16 molecules from patent US11945799B2, “4-ethynylpyridine derivatives useful as GCN2 inhibitors” (IP2IPO INNOVATIONS LIMITED, priority 2020, dated 2024) can be followed below.

SMILES strings stand for the structures. Where two headings read alike, the source gives them in different places.

Series [1] has as its target T1, full-length human GCN2 enzyme (Homo sapiens, UniProt Q9P2K8).
T1 construct: purchased Carna Bioscience
The series can be described thus: GCN2 enzyme inhibition, LanthaScreen TR-FRET Kinase Activity assay (10 μM and 300 μM ATP). It is filed as biochemical. The following applies: mean of replicate assays. As to the method: Biological and Pharmacokinetic Testing (a) GCN2 Enzyme Inhibition (10 μM and 300 μM Assays) Assay Protocol Overview:
The inhibitory activity of the Example compounds towards GCN2 enzyme was measured according to the description below, using a LanthaScreen TR-FRET (Time Resolved Fluorescence Resonance Energy Transfer) Kinase Activity assay distributed by ThermoFisher Scientific.
The full-length human GCN2 enzyme (UniProt accession number Q9P2K8) was used for all experiments (Carna Bioscience). The TR-FRET pair was composed of GFP-eIF2α and LanthaScreen Terbium-labeled anti-peIF2α (pSer52) Antibody.
Each example compound was dissolved in DMSO (0.15 mM) and dispensed in a 384-well plate by a D300 dispenser (Tecan) to a final concentration range 3000-0.13 nM using the logarithmic dilution mode in 2 replicates. Full inhibition (3000 nM commercial reference inhibitor) and DMSO vehicle control wells were also included on the same plate. All volumes were normalized to the final DMSO concentration of 2% of the reaction volume. Next, 5 μL of H2O was added to each well of the plate.
The enzyme mixture was prepared to obtain the following concentrations: • GCN2—30 nM • unloaded tRNA—0.3 nM • HEPES (pH=7.0)—100 mM • MgCl2—20 mM; MnCl2—10 mM
The mixture was applied by adding 5 μL to each well of the plate. The enzyme and the tested compound were then incubated at room temperature for 20 min while shaking at 450 rpm.
The substrate mixture was prepared to obtain the following concentrations: • GFP-eIF2α—240 nM • ATP—900 μM or 30 μM • HEPES (pH=7.0)—50 mM • MgCl2—10 mM • MnCl2—5 mM.
The mixture was applied by adding 5 μL to each well of the plate. Thus, the final concentrations of the 15 μL reaction mixture were as follows: • GCN2—10 nM • unloaded tRNA—0.1 nM • GFP-eIF2α—80 nM • ATP—300 μM or 10 μM • HEPES (1 M, pH=7.0)—50 mM • MgCl2—10 mM • MnCl2—5 mM.
The reaction was allowed to proceed at room temperature for 30 min while shaking at 450 rpm.
The antibody mixture was prepared to obtain the following concentrations: • Na2EDTA·2H2O—40 mM, in TR-FRET Dilution Buffer (Life technologies) • Tb—anti-peIF2a antibodies—4 nM.
The mixture was applied by adding 15 μL to each well. The plate was then incubated at room temperature for 60 min while shaking at 450 rpm and then read using Tecan Spark reader using specific TR-FRET filters.
The analysis of the GFP/Tb fluorescence results was conducted with GraphPad Prism to determine IC50 for each of the example compounds using 4-parameter model: log(inhibitor) vs. response-variable slope. IC50 and K, values were calculated in the usual way. The assay was carried out between 1 and 15 times. The results in the table below are the mean results from replicate assays for the compound in question, where applicable.
For orientation: TR-FRET usually uses a lanthanide donor and a delayed reading to cut background.

Series [2] is described as follows: Kinetic solubility in PBS buffer pH 7.4. It is filed as physicochemical. The following applies: aqueous buffer, kinetic from dmso stock; PBS buffer pH 7.4, 90 minutes at room temperature, from 10 mM DMSO stock. Here is the method:
The kinetic solubility assay investigates a solubility based on the amount of material which remains in solution after a precipitation process. […] Assay is performed using Multiscreen Vacuum Manifold. A buffer of interest (in standard protocol PBS buffer at pH=7.4 is used) is spiked with stock solution and incubated for 90 minutes at room temperature. After that time solution/suspension is filtrated. The concentration of each compound is determined on the base of prepared calibration curve using UV-VIS spectrophotometry method. The assay is made in triplicate.
Buffer of interest: 0.24 g of KH2PO4, 1.44 g of Na2HPO4, 0.2 g of KCl and 8 g NaCl and dissolve in 1 L distilled H2O; adjust pH to appropriate value (pH 7.4). 190 μl of buffer of interest was dispensed into the wells of a 96 well filter plate, followed by 10 μl of compound (10 mM stock solution in DMSO). The plate was shaken gently at room temperature for 90 minutes at 500 rpm using a BioSan, Plate Shaker-Thermostat, PST-60 HL-4. After 90 minutes, the plate was filtered using a vacuum manifold and vacuum pump. 100 μl of each filtrate and 100 μl acetonitrile was transferred to a 96 well UV-visible light transparent plate and the UV-visible absorption spectrum was measured using a Biotek Synergy 2 multiplate reader from 250-500 nm, interval range 10 nm. The amount of test compound was calculated using a calibration curve prepared by serial dilution of compounds in equivalent amounts of DMSO and acetonitrile.

Setting [3] is: read-out: GCN2 IC50 (nM) 10 uM ATP, 10 uM ATP.
Where [4] appears, read: read-out: GCN2 IC50 (nM) 300 uM ATP, 300 uM ATP.
Setting [5] is: read-out: GCN2 Ki (nM) 10 uM ATP, 10 uM ATP.
Setting [6] is: read-out: GCN2 Ki (nM) 300 uM ATP, 300 uM ATP.

T1 sequence (Q9P2K8 whole entry): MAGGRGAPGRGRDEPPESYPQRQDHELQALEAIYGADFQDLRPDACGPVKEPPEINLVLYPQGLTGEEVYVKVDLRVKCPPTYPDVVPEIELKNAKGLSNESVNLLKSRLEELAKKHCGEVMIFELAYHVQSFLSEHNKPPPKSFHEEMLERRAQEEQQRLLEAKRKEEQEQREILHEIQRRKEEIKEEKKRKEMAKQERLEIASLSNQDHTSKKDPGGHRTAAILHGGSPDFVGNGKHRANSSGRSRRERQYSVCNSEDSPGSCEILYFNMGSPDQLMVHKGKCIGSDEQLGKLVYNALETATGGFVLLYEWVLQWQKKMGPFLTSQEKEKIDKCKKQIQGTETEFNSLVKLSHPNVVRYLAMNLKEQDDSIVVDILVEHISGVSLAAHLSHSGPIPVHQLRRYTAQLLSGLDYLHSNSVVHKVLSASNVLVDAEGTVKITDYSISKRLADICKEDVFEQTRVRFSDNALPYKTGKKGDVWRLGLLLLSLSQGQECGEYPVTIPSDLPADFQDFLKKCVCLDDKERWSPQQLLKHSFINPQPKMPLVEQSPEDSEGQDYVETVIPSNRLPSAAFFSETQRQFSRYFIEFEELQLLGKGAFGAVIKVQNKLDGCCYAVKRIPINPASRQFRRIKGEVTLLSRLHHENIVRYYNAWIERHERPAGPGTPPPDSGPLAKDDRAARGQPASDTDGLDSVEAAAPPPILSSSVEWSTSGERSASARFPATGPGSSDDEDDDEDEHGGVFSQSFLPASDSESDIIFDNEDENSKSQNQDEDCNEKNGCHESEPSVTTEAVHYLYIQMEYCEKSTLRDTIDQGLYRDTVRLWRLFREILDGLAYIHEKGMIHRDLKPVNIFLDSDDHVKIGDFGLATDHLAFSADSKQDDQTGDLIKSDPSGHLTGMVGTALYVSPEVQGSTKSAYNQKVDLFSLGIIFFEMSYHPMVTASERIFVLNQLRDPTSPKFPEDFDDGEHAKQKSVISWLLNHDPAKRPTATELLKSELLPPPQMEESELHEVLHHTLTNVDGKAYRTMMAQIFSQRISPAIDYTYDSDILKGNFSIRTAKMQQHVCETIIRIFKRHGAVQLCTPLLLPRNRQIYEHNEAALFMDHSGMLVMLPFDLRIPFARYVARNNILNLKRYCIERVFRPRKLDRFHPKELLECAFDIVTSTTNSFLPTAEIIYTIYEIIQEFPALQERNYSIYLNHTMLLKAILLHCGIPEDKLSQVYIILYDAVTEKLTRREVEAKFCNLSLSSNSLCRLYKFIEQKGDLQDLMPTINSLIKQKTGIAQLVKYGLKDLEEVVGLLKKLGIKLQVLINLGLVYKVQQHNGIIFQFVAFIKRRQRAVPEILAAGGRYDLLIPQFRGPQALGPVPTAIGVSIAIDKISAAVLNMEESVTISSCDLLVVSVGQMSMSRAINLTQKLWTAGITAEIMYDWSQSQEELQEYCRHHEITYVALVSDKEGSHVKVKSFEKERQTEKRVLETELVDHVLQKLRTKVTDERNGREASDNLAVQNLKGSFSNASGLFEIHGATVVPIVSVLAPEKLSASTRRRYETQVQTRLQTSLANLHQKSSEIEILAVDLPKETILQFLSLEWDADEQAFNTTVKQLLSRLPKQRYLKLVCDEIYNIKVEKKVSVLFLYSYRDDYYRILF

As to `COc1ncc(Cl)cc1S(=O)(=O)Nc1nccc(C#Cc2cncc3ncn(C)c23)c1F` [Example 18, 5-chloro-N-[3-fluoro-4-(2-{1-methyl-1H-imidazo[4,5-c]pyridin-7-yl}ethynyl)pyridin-2-yl]-2-methoxypyridine-3-sulfonamide], the IC50 (as a rule, the concentration at which inhibition is half-maximal) was 11.3 nM in series [1] (setting [3]) and 365 nM in series [1] (setting [4]). The figures for the inhibitory constant (Ki) in series [1] (setting [5]) and in series [1] (setting [6]) were 3.6 nM and 5.6 nM, respectively. The kinetic solubility (usually solubility judged after dilution from a stock solution rather than from solid) at 90 min in series [2] was 24.3 µg/mL.
`COc1ncc(Cl)cc1S(=O)(=O)Nc1nccc(C#Cc2cncc3ncsc23)c1F` [Example 19, 5-chloro-N-[3-fluoro-4-(2-{[1,3]thiazolo[4,5-c]pyridin-7-yl}ethynyl)pyridin-2-yl]-2-methoxypyridine-3-sulfonamide]: the figures for the IC50 in series [1] (setting [3]) and in series [1] (setting [4]) were 12 nM and 384 nM, respectively. Also, the inhibition constant (Ki) (commonly the equilibrium dissociation constant of an inhibitor or competing ligand from its target) in series [1] (setting [5]) stood at 3.8 nM; in series [1] (setting [6]), 5.9 nM. Moreover, the kinetic solubility at 90 min in series [2] was 103 µg/mL.
The matching figures for `COc1ncc(Cl)cc1S(=O)(=O)Nc1nccc(C#Cc2cncc3c2cnn3C)c1F` [Example 20, 5-chloro-N-[3-fluoro-4-(2-{1-methyl-1H-pyrazolo[3,4-c]pyridin-4-yl}ethynyl)pyridin-2-yl]-2-methoxypyridine-3-sulfonamide]: 14.5 nM, 324 nM, 4.6 nM, 4.9 nM and 70.6 µg/mL.
`COc1ncc(Cl)cc1S(=O)(=O)Nc1nccc(C#Cc2cncc3[nH]ncc23)c1F` [Example 21, 5-chloro-N-[3-fluoro-4-(2-{1H-pyrazolo[3,4-c]pyridin-4-yl}ethynyl)pyridin-2-yl]-2-methoxypyridine-3-sulfonamide]: in series [1] (setting [4]), the 50% inhibitory concentration (IC50) was 158 nM. The Ki in series [1] (setting [6]) came to 2.4 nM. In series [2], the kinetic solubility at 90 min stood at 221 µg/mL.
The matching figures for `COc1ncc(Cl)cc1S(=O)(=O)Nc1nccc(C#Cc2cncc3nn(C)cc23)c1F` [Example 22, 5-chloro-N-[3-fluoro-4-(2-{2-methyl-2H-pyrazolo[3,4-c]pyridin-4-yl}ethynyl)pyridin-2-yl]-2-methoxypyridine-3-sulfonamide]: 98.6 nM, 1.5 nM and 229 µg/mL.
The matching figures for `COc1ncc(Cl)cc1S(=O)(=O)Nc1nccc(C#Cc2cncc3cnn(C)c23)c1F` [Example 24, 5-chloro-N-[3-fluoro-4-(2-{1-methyl-1H-pyrazolo[4,3-c]pyridin-7-yl}ethynyl)pyridin-2-yl]-2-methoxypyridine-3-sulfonamide]: 169 nM, 2.6 nM and 80.3 µg/mL.
The matching figures for `CNc1ncc(C#Cc2ccnc(NS(=O)(=O)c3cc(Cl)cnc3OC)c2F)cn1` [Example 25, 5-chloro-N-(3-fluoro-4-{2-[2-(methylamino)pyrimidin-5-yl]ethynyl}pyridin-2-yl)-2-methoxypyridine-3-sulfonamide]: 110 nM, 1.7 nM and 208 µg/mL.
For `COc1ncc(Cl)cc1S(=O)(=O)Nc1nccc(C#Cc2cnc3cnccn23)c1F` [Example 26, 5-chloro-N-[3-fluoro-4-(2-{imidazo[1,2-a]pyrazin-3-yl}ethynyl)pyridin-2-yl]-2-methoxypyridine-3-sulfonamide], in series [1] (setting [4]), the half-inhibitory concentration (IC50) came out at 556 nM. Besides, the Ki in series [1] (setting [6]) amounted to 8.5 nM. Further, the kinetic solubility at 90 min in series [2] is 241 µg/mL.
For the molecule `COc1ncc(Cl)cc1S(=O)(=O)Nc1nccc(C#Cc2cnc3[nH]ncc3n2)c1F` [Example 27, 5-chloro-N-[3-fluoro-4-(2-{1H-pyrazolo[3,4-b]pyrazin-5-yl}ethynyl)pyridin-2-yl]-2-methoxypyridine-3-sulfonamide], in series [1] (setting [4]), the IC50 was found to be 225 nM. Also, the Ki in series [1] (setting [6]) was determined as 3.4 nM. In series [2], the solubility (kinetic) at 90 min worked out at 225 µg/mL.
For `COc1ncc(Cl)cc1S(=O)(=O)Nc1nccc(C#Cc2cnc3[nH]c(=O)[nH]c3n2)c1F` [Example 28, 5-chloro-N-[3-fluoro-4-(2-{2-oxo-1H,2H,3H-imidazo[4,5-b]pyrazin-5-yl}ethynyl)pyridin-2-yl]-2-methoxypyridine-3-sulfonamide], in that order: 174 nM, 2.7 nM and 231 µg/mL.
For `COc1ncc(Cl)cc1S(=O)(=O)Nc1nccc(C#Cc2cnc3[nH]cnc3c2)c1F` [Example 29, 5-chloro-N-[3-fluoro-4-(2-{3H-imidazo[4,5-b]pyridin-6-yl}ethynyl)pyridin-2-yl]-2-methoxypyridine-3-sulfonamide], in that order: 654 nM, 10 nM and 231 µg/mL.
Consider `COc1ncc(Cl)cc1S(=O)(=O)Nc1nccc(C#Cc2cnc3ccnn3c2)c1F` [Example 30, 5-chloro-N-[3-fluoro-4-(2-{pyrazolo[1,5-a]pyrimidin-6-yl}ethynyl)pyridin-2-yl]-2-methoxypyridine-3-sulfonamide], for which the half-inhibitory concentration (IC50) in series [1] (setting [4]) was determined as 160 nM. Further, in series [1] (setting [6]), the inhibitory constant (Ki) stood at 2.4 nM. Moreover, in series [2], the solubility (kinetic) at 90 min was more than 245 µg/mL.
As for `COc1ncc(Cl)cc1S(=O)(=O)Nc1nccc(C#Cc2cnn3cccnc23)c1F` [Example 31, 5-chloro-N-[3-fluoro-4-(2-{pyrazolo[1,5-a]pyrimidin-3-yl}ethynyl)pyridin-2-yl]-2-methoxypyridine-3-sulfonamide], in series [1] (setting [4]), the IC50 was determined as 98.9 nM. In addition, in series [1] (setting [6]), the Ki amounted to 1.5 nM. For the same molecule, the solubility (kinetic) at 90 min in series [2] was more than 243 µg/mL.
For `COc1ncc(Cl)cc1S(=O)(=O)Nc1nccc(C#Cc2cnc3[nH]c(=O)[nH]c3c2)c1F` [Example 32, 5-chloro-N-[3-fluoro-4-(2-{2-oxo-1H,2H,3H-imidazo[4,5-b]pyridin-6-yl}ethynyl)pyridin-2-yl]-2-methoxypyridine-3-sulfonamide], in that order: 48.1 nM, 0.7 nM and 40.1 µg/mL.
For `COc1ncc(Cl)cc1S(=O)(=O)Nc1nccc(C#Cc2cnc3[nH]nc(C)c3c2)c1F` [Example 33, 5-chloro-N-[3-fluoro-4-(2-{3-methyl-1H-pyrazolo[3,4-b]pyridin-5-yl}ethynyl)pyridin-2-yl]-2-methoxypyridine-3-sulfonamide], the IC50 was determined as 4.2 nM in series [1] (setting [3]) and 21.7 nM in series [1] (setting [4]). Besides, the Ki in series [1] (setting [5]) was 1.3 nM; in series [1] (setting [6]) it was 0.3 nM. The solubility (kinetic) at 90 min in series [2] is 245 µg/mL.
Turning to `COc1ncc(Cl)cc1S(=O)(=O)Nc1nccc(C#Cc2cnc(N)nc2C)c1F` [Example 34, N-{4-[2-(2-amino-4-methylpyrimidin-5-yl)ethynyl]-3-fluoropyridin-2-yl}-5-chloro-2-methoxypyridine-3-sulfonamide], the IC50 in series [1] (setting [4]) is 658 nM. Moreover, in series [1] (setting [6]), the Ki was determined as 10 nM. Moreover, the kinetic solubility at 90 min in series [2] is 238 µg/mL.
